This note sets out measurements from patent publication US9708316B2 (BRISTOL-MYERS SQUIBB COMPANY, priority 2014, dated 2017).

A word on the IC50: it is the concentration needed to halve the response being measured.

In one test the target is HIS-TGFβR2 WT (Homo sapiens, UniProt P37173). The experiment in a line: HTRF probe-displacement assay, HIS-TGFβR2 WT. The format is binding.
The target of another test is T1, HIS-TGFβR1 T204D (Homo sapiens, UniProt P36897, T204D).
T1 sequence (P36897 34-503 T204D): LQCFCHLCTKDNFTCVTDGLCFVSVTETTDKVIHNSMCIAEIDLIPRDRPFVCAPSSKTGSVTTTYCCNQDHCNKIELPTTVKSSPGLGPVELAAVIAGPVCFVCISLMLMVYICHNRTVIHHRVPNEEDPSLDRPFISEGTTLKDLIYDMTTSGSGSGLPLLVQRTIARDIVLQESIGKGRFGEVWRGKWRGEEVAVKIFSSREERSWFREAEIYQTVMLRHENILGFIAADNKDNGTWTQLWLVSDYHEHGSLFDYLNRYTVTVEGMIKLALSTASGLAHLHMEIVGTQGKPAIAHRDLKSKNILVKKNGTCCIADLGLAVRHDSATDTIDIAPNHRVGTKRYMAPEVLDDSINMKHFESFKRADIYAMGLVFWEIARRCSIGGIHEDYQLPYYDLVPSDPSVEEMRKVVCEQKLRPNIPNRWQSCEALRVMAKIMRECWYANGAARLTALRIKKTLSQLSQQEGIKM
The test can be described thus: HTRF probe-displacement assay, HIS-TGFβR1 T204D. It is filed as binding. Particulars: read-out: TGFβR1 (μM) IC50.

The structures appear in SMILES notation.

Sequence of HIS-TGFβR2 WT (P37173 23-567): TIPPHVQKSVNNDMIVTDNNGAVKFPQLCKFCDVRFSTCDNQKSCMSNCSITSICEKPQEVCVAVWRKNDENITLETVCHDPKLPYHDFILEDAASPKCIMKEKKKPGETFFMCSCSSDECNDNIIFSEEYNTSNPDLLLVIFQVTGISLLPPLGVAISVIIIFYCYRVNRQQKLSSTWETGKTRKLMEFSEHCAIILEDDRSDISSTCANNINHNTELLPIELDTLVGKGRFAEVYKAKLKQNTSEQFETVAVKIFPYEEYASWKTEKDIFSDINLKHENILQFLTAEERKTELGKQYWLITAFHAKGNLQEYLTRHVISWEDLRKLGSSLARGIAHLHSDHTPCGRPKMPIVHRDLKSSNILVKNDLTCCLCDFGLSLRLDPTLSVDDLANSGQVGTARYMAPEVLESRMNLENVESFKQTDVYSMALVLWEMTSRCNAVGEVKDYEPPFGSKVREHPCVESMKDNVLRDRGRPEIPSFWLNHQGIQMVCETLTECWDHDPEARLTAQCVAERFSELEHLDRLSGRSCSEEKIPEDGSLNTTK

In the case of `CNCc1ccnc2c(-c3cccc(C(F)F)n3)c(-c3ccnc(NC(C)=O)c3)[nH]c12` [Example 151, N-(4-{3-[6-(Difluoromethyl)pyridin-2-yl]-7-[(methylamino)methyl]-1H-pyrrolo[3,2-b]pyridin-2-yl}pyridin-2-yl)acetamide], the IC50 at HIS-TGFβR2 WT was over 15 µM; on HIS-TGFβR1 T204D, 0.01 µM.

Take `CC(=O)Nc1cc(-c2[nH]c3c(CN4CC(F)(F)C4)ccnc3c2-c2cccc(C(F)F)n2)ccn1` [Example 152, N-(4-{7-[(3,3-Difluoroazetidin-1-yl)methyl]-3-[6-(difluoromethyl)pyridin-2-yl]-1H-pyrrolo[3,2-b]pyridin-2-yl}pyridin-2-yl)acetamide]: the IC50 at HIS-TGFβR2 WT turned out to be 4.09 µM; at HIS-TGFβR1 T204D it was 0.002 µM.

In the case of `CC(=O)Nc1cc(-c2[nH]c3c(C(C)(C)O)ccnc3c2-c2cccc(C(F)F)n2)ccn1` [Example 154, N-(4-{3-[6-(Difluoromethyl)pyridin-2-yl]-7-(2-hydroxypropan-2-yl)-1H-pyrrolo[3,2-b]pyridin-2-yl}pyridin-2-yl)acetamide], the IC50 on HIS-TGFβR2 WT came to 1.77 µM; on HIS-TGFβR1 T204D, 0.001 µM.

On to `CC(=O)Nc1cc(-c2[nH]c3c(CCO)ccnc3c2-c2cccc(C(F)F)n2)ccn1` [Example 155, N-(4-{3-[6-(Difluoromethyl)pyridin-2-yl]-7-(2-hydroxyethyl)-1H-pyrrolo[3,2-b]pyridin-2-yl}pyridin-2-yl)acetamide], for which the IC50 on HIS-TGFβR2 WT was 3.47 µM; on HIS-TGFβR1 T204D it was 0.001 µM.

Consider `CC(=O)Nc1cc(-c2[nH]c3c(N4CCCC4)ccnc3c2-c2cccc(C(F)F)n2)ccn1` [Example 156, N-(4-{3-[6-(Difluoromethyl)pyridin-2-yl]-7-(pyrrolidin-1-yl)-1H-pyrrolo[3,2-b]pyridin-2-yl}pyridin-2-yl)acetamide], for which the figures for the half-inhibitory concentration (IC50) at HIS-TGFβR2 WT and on HIS-TGFβR1 T204D were over 15 µM and 0.188 µM, respectively.

As for `COc1ccc(-c2c(-c3ccnc(NC(C)=O)c3)[nH]c3cc(NC(C)=O)cnc23)nc1` [Example 157, N-(4-(6-Acetamido-3-(5-methoxypyridin-2-yl)-1H-pyrrolo[3,2-b]pyridin-2-yl)pyridin-2-yl)acetamide], the IC50 at HIS-TGFβR2 WT is over 15 µM; on HIS-TGFβR1 T204D, 0.0013 µM.

With `COc1ccc(-c2c(-c3ccnc(NC(C)=O)c3)[nH]c3cc(N4CCC(OC)CC4)cnc23)nc1` [Example 158, N-(4-(6-(4-Methoxypiperidin-1-yl)-3-(5-methoxypyridin-2-yl)-1H-pyrrolo[3,2-b]pyridin-2-yl)pyridin-2-yl)acetamide], the IC50 is over 15 µM on HIS-TGFβR2 WT and 0.0163 µM at HIS-TGFβR1 T204D.

In the case of `COc1ccc(-c2c(-c3ccnc(NC(C)=O)c3)[nH]c3cc(N4CCC(NC(C)=O)CC4)cnc23)nc1` [Example 159, N-(4-(6-(4-Acetamidopiperidin-1-yl)-3-(5-methoxypyridin-2-yl)-1H-pyrrolo[3,2-b]pyridin-2-yl)pyridin-2-yl)acetamide], the IC50 on HIS-TGFβR2 WT was over 15 µM; on HIS-TGFβR1 T204D, 0.0311 µM.

`COc1ccc(-c2c(-c3ccnc(NC(C)=O)c3)[nH]c3cc(N4CCC(CO)CC4)cnc23)nc1` [Example 161, N-(4-(6-(4-(Hydroxymethyl)piperidin-l-yl)-3-(5-methoxypyridin-2-yl)-1H-pyrrolo[3,2-b]pyridin-2-yl)pyridin-2-yl)acetamide]: the IC50 at HIS-TGFβR2 WT was over 15 µM; on HIS-TGFβR1 T204D, 0.0126 µM.

For `COc1ccc(-c2c(-c3ccnc(NC(C)=O)c3)[nH]c3cc(N4CCC[C@H]4CO)cnc23)nc1` [Example 162, (S)-N-(4-(6-(2-(Hydroxymethyl)pyrrolidin-1-yl)-3-(5-methoxypyridin-2-yl)-1H-pyrrolo[3,2-b]pyridin-2-yl)pyridin-2-yl)acetamide], the figures for the IC50 on HIS-TGFβR2 WT and on HIS-TGFβR1 T204D were over 15 µM and 0.0279 µM, respectively.

Consider `COc1ccc(-c2c(-c3ccnc(NC(C)=O)c3)[nH]c3cc(N4CCC[C@@H]4CO)cnc23)nc1` [Example 163, (R)-N-(4-(6-(2-(Hydroxymethyl)pyrrolidin-l-yl)-3-(5-methoxypyridin-2-yl)-1H-pyrrolo[3,2-b]pyridin-2-yl)pyridin-2-yl)acetamide], for which the IC50 was over 15 µM on HIS-TGFβR2 WT and 0.0304 µM on HIS-TGFβR1 T204D.

Take `COc1ccc(-c2c(-c3ccnc(NC(C)=O)c3)[nH]c3cc(N4CCOCC4)cnc23)nc1` [Example 164, N-(4-(3-(5-Methoxypyridin-2-yl)-6-morpholino-1H-pyrrolo[3,2-b]pyridin-2-yl)pyridin-2-yl)acetamide]: the IC50 is over 15 µM on HIS-TGFβR2 WT and 0.0053 µM on HIS-TGFβR1 T204D.

Take `COc1ccc(-c2c(-c3ccnc(NC(C)=O)c3)[nH]c3cc(N(C)CCO)cnc23)nc1` [Example 165, N-(4-(6-((2-Hydroxyethyl)(methyl)amino)-3-(5-methoxypyridin-2-yl)-1H-pyrrolo[3,2-b]pyridin-2-yl)pyridin-2-yl)acetamide]: the IC50 on HIS-TGFβR2 WT is over 15 µM; at HIS-TGFβR1 T204D, 0.0353 µM.

In the case of `COc1ccc(-c2c(-c3ccnc(NC(C)=O)c3)[nH]c3cc(N4CC[C@H](O)[C@@H](O)C4)cnc23)nc1` [Example 166, N-(4-(6-((3S,4S)-3,4-Dihydroxypiperidin-l-yl)-3-(5-methoxypyridin-2-yl)-1H-pyrrolo[3,2-b]pyridin-2-yl)pyridin-2-yl)acetamide], the IC50 was over 15 µM at HIS-TGFβR2 WT and 0.0132 µM at HIS-TGFβR1 T204D.

Turning to `COc1ccc(-c2c(-c3ccnc(NC(C)=O)c3)[nH]c3cc(N4CCCC4)cnc23)nc1` [Example 167, N-(4-(3-(5-Methoxypyridin-2-yl)-6-(pyrrolidin-1-yl)-1H-pyrrolo[3,2-b]pyridin-2-yl)pyridin-2-yl)acetamide], the IC50 was over 15 µM at HIS-TGFβR2 WT and 0.0171 µM at HIS-TGFβR1 T204D.

Take `CC(=O)Nc1cc(-c2[nH]c3cc(Cl)cnc3c2-c2ncc(Cl)s2)ccn1` [Example 168, N-(4-(6-Chloro-3-(5-chlorothiazol-2-yl)-1H-pyrrolo[3,2-b]pyridin-2-yl)pyridin-2-yl)acetamide]: the results for the IC50 on HIS-TGFβR2 WT and at HIS-TGFβR1 T204D were 1.19 µM and 0.0138 µM, respectively.

Turning to `CC(=O)Nc1cc(-c2[nH]c3cc(Cl)cnc3c2-c2ncc(C)s2)ccn1` [Example 169], the IC50 on HIS-TGFβR2 WT amounted to 0.882 µM; at HIS-TGFβR1 T204D, 0.0023 µM.

On to `COc1ccc(-c2c(-c3ccnc(NC(C)=O)c3)[nH]c3cc(Cl)cnc23)nc1C` [Example 170, N-(4-(6-Chloro-3-(5-methoxy-6-methylpyridin-2-yl)-1H-pyrrolo[3,2-b]pyridin-2-yl)pyridin-2-yl)acetamide], for which the IC50 at HIS-TGFβR2 WT was over 15 µM; at HIS-TGFβR1 T204D it was 0.032 µM.

Regarding `CC(=O)Nc1cc(-c2[nH]c3cc(Cl)cnc3c2-c2cccc(C(F)F)n2)ccn1` [Example 171, N-(4-(6-Chloro-3-(6-(difluoromethyl)pyridin-2-yl)-1H-pyrrolo[3,2-b]pyridin-2-yl)pyridin-2-yl)acetamide], the IC50 at HIS-TGFβR2 WT amounted to 10.8 µM; on HIS-TGFβR1 T204D, 0.001 µM.

On to `CC(=O)Nc1cc(-c2[nH]c3cc(Cl)cnc3c2-c2nc(C(F)F)cs2)ccn1` [Example 172, N-(4-(6-Chloro-3-(4-(difluoromethyl)thiazol-2-yl)-1H-pyrrolo[3,2-b]pyridin-2-yl)pyridin-2-yl)acetamide], for which the values for the IC50 on HIS-TGFβR2 WT and at HIS-TGFβR1 T204D were 3.98 µM and 0.0004 µM, respectively.

As to `COc1ccc(-c2c(-c3ccnc(NC(C)=O)c3)[nH]c3cc(C)cnc23)cn1` [Example 173, N-(4-(3-(6-Methoxypyridin-3-yl)-6-methyl-1H-pyrrolo[3,2-b]pyridin-2-yl)pyridin-2-yl)acetamide], the IC50 came to 1.35 µM at HIS-TGFβR2 WT and 0.15 µM on HIS-TGFβR1 T204D.

Consider `CC(=O)Nc1cc(-c2[nH]c3cccnc3c2-c2cccc(OC(F)F)n2)ccn1` [Example 174, N-(4-(3-(6-(Difluoromethoxy)pyridin-2-yl)-1H-pyrrolo[3,2-b]pyridin-2-yl)pyridin-2-yl)acetamide], for which the IC50 is over 15 µM on HIS-TGFβR2 WT and 0.0034 µM on HIS-TGFβR1 T204D.

For the compound `CC(=O)Nc1cc(-c2[nH]c3cc(Cl)cnc3c2-c2nc(C(F)(F)F)cs2)ccn1` [Example 175, N-(4-(6-Chloro-3-(4-(trifluoromethyl)thiazol-2-yl)-1H-pyrrolo[3,2-b]pyridin-2-yl)pyridin-2-yl)acetamide], the values for the IC50 at HIS-TGFβR2 WT and at HIS-TGFβR1 T204D were over 15 µM and 0.0004 µM, respectively.

As for `CC(=O)Nc1cc(-c2[nH]c3cc(Cl)cnc3c2-c2nc(C)cs2)ccn1` [Example 176, N-(4-(6-Chloro-3-(4-methylthiazol-2-yl)-1H-pyrrolo[3,2-b]pyridin-2-yl)pyridin-2-yl)acetamide], the IC50 on HIS-TGFβR2 WT came out at 0.037 µM; on HIS-TGFβR1 T204D, 0.0005 µM.

As to `CC(=O)Nc1cc(-c2[nH]c3cc(Cl)cnc3c2-c2nc(C#N)cs2)ccn1` [Example 177, N-(4-(6-Chloro-3-(4-cyanothiazol-2-yl)-1H-pyrrolo[3,2-b]pyridin-2-yl)pyridin-2-yl)acetamide], the IC50 was over 15 µM at HIS-TGFβR2 WT and 0.0014 µM on HIS-TGFβR1 T204D.

In the case of `CC(=O)Nc1cc(-c2[nH]c3cc(Cl)cnc3c2-c2nc(CO)cs2)ccn1` [Example 178, N-(4-(6-Chloro-3-(4-(hydroxymethyl)thiazol-2-yl)-1H-pyrrolo[3,2-b]pyridin-2-yl)pyridin-2-yl)acetamide], the IC50 at HIS-TGFβR2 WT was found to be 0.176 µM; at HIS-TGFβR1 T204D, 0.0035 µM.

Turning to `CC(=O)Nc1cc(-c2[nH]c3cc(Cl)cnc3c2-c2nc(C)ns2)ccn1` [Example 179, N-(4-(6-chloro-3-(3-methyl-1,2,4-thiadiazol-5-yl)-1H-pyrrolo[3,2-b]pyrdin-2-yl)pyridin-2-yl)acetamide], the IC50 at HIS-TGFβR2 WT is over 15 µM; at HIS-TGFβR1 T204D, 0.058 µM.
